Legend:
human cathepsin F = target: T1, human cathepsin F (Homo sapiens, UniProt Q9UBX1); test: Cathepsin F Assay; assay type: biochemical; details: IP from dose response curve; Z-Phe-Arg-AMC substrate, pH 5.5; read-out: hCat F (IP (nM))
T1 sequence (Q9UBX1 271-484): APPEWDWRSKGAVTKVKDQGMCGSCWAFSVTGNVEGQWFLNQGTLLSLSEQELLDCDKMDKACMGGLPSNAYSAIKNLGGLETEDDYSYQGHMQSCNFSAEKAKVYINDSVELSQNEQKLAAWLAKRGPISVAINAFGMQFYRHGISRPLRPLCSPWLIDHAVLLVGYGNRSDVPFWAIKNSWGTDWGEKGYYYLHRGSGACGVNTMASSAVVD
Method: Serial dilutions (1/3) from 500 μM down to 0.025 μM of test compounds were prepared in dimethyl sulfoxide (DMSO). Then 0.5 μL of DMSO from each dilution were added to 18.75 μL of assay buffer (MES, 50 mM (pH 5.5); EDTA, 2.5 mM; DTT, 2.5 mM and 10% DMSO) containing human cathepsin F (10 nM) in assay buffer solution. The assay solutions were mixed for 5-10 seconds on a shaker plate and incubated for 15 minutes at room temperature. Z-Phe-Arg-AMC (8 μM) in 6.25 μL of assay buffer was added to the assay solutions. Hydrolysis of the coumarin leaving group (AMC) was followed by spectrofluorometry (Exλ=360 nm; Emλ=460 nm) for 20 minutes. Percent of inhibition were calculated by fitting experimental values to standard mathematical model for dose response curve.

human cathepsin K = human cathepsin K (UniProt P43236, Y175D/V274L, species not given); test: Cathepsin K Assay; assay type: biochemical; details: IP from dose response curve; Z-Leu-Arg-AMC substrate, pH 5.5; read-out: hrbCat K (IP (nM))

Row | Structure (SMILES) | IC50 (human cathepsin F) | IC50 (human cathepsin K)
1 | Cc1c(-c2ccc(N3CCS(=O)(=O)CC3)cc2)c([C@@H]2CCCC[C@H]2C(=O)N[C@@H](C)C#N)nn1-c1ccc(F)cn1 [Example 66, (1R,2R)-N-((S)-1-cyanoethyl)-2-(4-(4-(1,1-dioxidothiomorpholino)phen-yl)-1-(5-fluoropyridin-2-yl)-5-methyl-1H-pyrazol-3-yl)cyclohexanecarboxamide] | 653 nM | 3.6 nM
2 | C[C@@H](C#N)NC(=O)[C@@H]1CC(F)(F)CC[C@H]1c1nn(-c2ccc(F)cc2)c(CO)c1-c1ccc(N2CCS(=O)(=O)CC2)cc1 [Example 61, (1R,2R)-N-((S)-1-cyanoethyl)-2-(4-(4-(1,1-dioxidothiomorpholino)phen-yl)-1-(4-fluorophenyl)-5-(hydroxymethyl)-1H-pyrazol-3-yl)-5,5-difluorocyclohexanecarbox-amide] | 121 nM | 1.61 nM
3 | N#CC1(NC(=O)[C@@H]2CC(F)(F)CC[C@H]2c2nn3ccccc3c2-c2ccc(N3CCS(=O)(=O)CC3)cc2)CC1 [Example 28, (1R,2R)-N-(1-cyanocyclopropyl)-2-(3-(4-(1,1-dioxidothiomorpholino)phen-yl)pyrazolo[1,5-a]pyridin-2-yl)-5,5-difluorocyclohexanecarbox-amide] | 363 nM | 1.94 nM
4 | N#CC1(NC(=O)[C@@H]2CCCC[C@H]2c2nn(-c3cccnc3)cc2-c2ccc(N3CCS(=O)(=O)CC3)cc2)CC1 [Example 164, (1R,2R)-N-(1-cyanocyclopropyl)-2-(4-(4-(1,1-dioxidothiomorpholino)phen-yl)-1-(pyridin-3-yl)-1H-pyrazol-3-yl)cyclohexanecarboxamide] | 697 nM | 0.48 nM
5 | N#CC1(NC(=O)[C@@H]2CC3CC3C[C@H]2c2nn(-c3ccc(F)cn3)cc2-c2ccc(N3CCS(=O)(=O)CC3)cc2)CC1 (single isomer, unassigned) [Example 153, (1R,3R,4R,6S) or (1S,3R,4R,6R)-N-(1-cyanocyclopropyl)-4-(4-(4-(1,1-dioxidothiomorpholino)phen-yl)-1-(5-fluoropyridin-2-yl)-1H-pyrazol-3-yl)bicyclo[4.1.0]heptane-3-carboxamide] | 265 nM | 0.66 nM
6 | N#CC1(NC(=O)[C@@H]2CCC(F)(F)C[C@H]2c2nn(-c3ccc(F)cn3)cc2-c2ccc(N3CCS(=O)(=O)CC3)cc2)CC1 [Example 151, (1R,2R)-N-(1-cyanocyclopropyl)-2-(4-(4-(1,1-dioxidothiomorpholino)phen-yl)-1-(5-fluoropyridin-2-yl)-1H-pyrazol-3-yl)-4,4-difluorocyclohexanecarbox-amide] | – | 2.44 nM
7 | CC(C#N)NC(=O)[C@@H]1CCC(F)(F)C[C@H]1c1nn(-c2ccc(F)cn2)cc1-c1ccc(N2CCS(=N)(=O)CC2)cc1 (single isomer, unassigned) [Example 22, (1R,2R)-N-((R or S)-1-cyanoethyl)-4,4-difluoro-2-(1-(5-fluoropyridin-2-yl)-4-(4-(1-imino-1-oxidothiomorpholino)phenyl)-1H-pyrazol-3-yl)cyclohexanecarboxamide] | – | 264 nM
8 | CN=S1(=O)CCN(c2ccc(-c3cn(-c4ccc(F)cn4)nc3[C@@H]3CC(F)(F)CC[C@H]3C(=O)NC(C)C#N)cc2)CC1 (single isomer, unassigned) [Example 24, (1R,2R)-N-((R or S)-1-cyanoethyl)-4,4-difIuoro-2-(1-(5-fluoropyridin-2-yl)-4-(4-(1-(methylimino)-1-oxidothiomorpholino)phenyl)-1H-pyrazol-3-yl)cyclohexanecarboxamide] | – | 169 nM
9 | CC(C)[C@@H](C#N)NC(=O)[C@@H]1C[C@@H](F)CC[C@H]1c1nn(-c2ncccc2F)cc1-c1ccc(N2CCS(=O)(=O)CC2)cc1 [Example 49, (1R,2R,5S)-N-((S)-1-cyano-2-methylpropyl)-2-(4-(4-(1,1-dioxidothiomorpholino)phen-yl)-1-(3-fluoropyridin-2-yl)-1H-pyrazol-3-yl)-5-fluorocyclohexanecarboxamide] | – | 8.35 nM
10 | CN=S1(=O)CCN(c2ccc(-c3cn(-c4ncccc4F)nc3[C@@H]3CC[C@H](F)C[C@H]3C(=O)NC3(C#N)CC3)cc2)CC1 [Example 53, (1R,2R,5S)-N-(1-cyanocyclopropyl)-5-fluoro-2-(1-(3-fluoropyridin-2-yl)-4-(4-(1-(methylimino)-1-oxidothiomorpholino)phenyl)-1H-pyrazol-3-yl)cyclohexanecarboxamide] | – | 6.54 nM
11 | N#CC1(NC(=O)[C@@H]2CCC(F)(F)C[C@H]2c2nn(-c3ccc(C(F)(F)F)cn3)cc2-c2ccc(N3CCS(=O)(=O)CC3)cc2)CC1 [Example 149, (1R,2R)-N-(1-cyanocyclopropyl)-2-(4-(4-(1,1-dioxidothiomorpholino)phen-yl)-1-(5-(trifluoromethyl)pyridin-2-yl)-1H-pyrazol-3-yl)-4,4-difluorocyclohexanecarbox-amide] | – | 2.58 nM
12 | CC(C)[C@@H](C#N)NC(=O)[C@@H]1C[C@@H](F)CC[C@H]1c1nn(-c2ncccc2F)cc1-c1ccc(N2CCS(=N)(=O)CC2)cc1 [Example 58, (1R,2R,5S)-N-((S)-1-cyano-2-methylpropyl)-5-fluoro-2-(1-(3-fluoropyridin-2-yl)-4-(4-(1-imino-1-oxidothiomorpholino)phenyl)-1H-pyrazol-3-yl)cyclohexanecarboxamide] | – | 16 nM
13 | CN=S1(=O)CCN(c2ccc(-c3cn(-c4ncccc4F)nc3[C@@H]3CC[C@H](F)C[C@H]3C(=O)N[C@@H](C)C#N)cc2)CC1 [Example 54, (1R,2R,5S)-N-((S)-1-cyanoethyl)-5-fluoro-2-(1-(3-fluoropyridin-2-yl)-4-(4-(1-(methylimino)-1-oxidothiomorpholino)phenyl)-1H-pyrazol-3-yl)cyclohexanecarboxamide] | – | 7.89 nM
14 | CN=S1(=O)CCN(c2ccc(-c3cn(-c4ncccc4F)nc3[C@@H]3CC(F)(F)CC[C@H]3C(=O)NC3(C#N)CC3)cc2)CC1 [Example 40, (1R,2R)-N-(1-cyanocyclopropyl)-4,4-difluoro-2-(1-(3-fluoropyridin-2-yl)-4-(4-(1-(methylimino)-1-oxidothiomorpholino)phenyl)-1H-pyrazol-3-yl)cyclohexanecarboxamide] | – | 22 nM
15 | N#CC1(NC(=O)[C@@H]2CCC(F)(F)C[C@H]2c2nn(-c3ncccc3F)cc2-c2ccc(N3CCS(=N)(=O)CC3)cc2)CC1 [Example 39, (1R,2R)-N-(1-cyanocyclopropyl)-4,4-difluoro-2-(1-(3-fluoropyridin-2-yl)-4-(4-(1-imino-1-oxidothiomorpholino)phenyl)-1H-pyrazol-3-yl)cyclohexanecarboxamide] | – | 48.7 nM
16 | CC1(C)CC[C@@H](c2nn(-c3ccc(F)cc3)cc2-c2ccc(N3CCS(=O)(=O)CC3)cc2)[C@H](C(=O)NC2(C#N)CC2)C1 (single isomer, unassigned) [Example 126, (1R,2R) or (1S,2S)-N-(1-cyanocyclopropyl)-2-(4-(4-(1,1-dioxidothiomorpholino)phen-yl)-1-(4-fluorophenyl)-1H-pyrazol-3-yl)-5,5-dimethylcyclohexanecarbox-amide] | – | 116 nM
17 | C[C@@H](C#N)NC(=O)[C@@H]1C[C@@H](F)CC[C@H]1c1nn(-c2ncccc2F)cc1-c1ccc(N2CCS(=O)(=O)CC2)cc1 [Example 12, (1R,2R,5S)—N—((S)-1-Cyanoethyl)-2-(4-(4-(1,1-dioxidothiomorpholino)phenyl)-1-(3-fluoropyridin-2-yl)-1H-pyrazol-3-yl)-5-fluorocyclohexanecarboxamide] | – | 6.89 nM
18 | CN=S1(=O)CCN(c2ccc(-c3cn(-c4ncccc4F)nc3[C@@H]3CC[C@H](F)C[C@H]3C(=O)N[C@H](C#N)C(C)C)cc2)CC1 [Example 55, (1R,2R,5S)-N-((S)-1-cyano-2-methylpropyl)-5-fluoro-2-(1-(3-fluoropyridin-2-yl)-4-(4-(1-(methylimino)-1-oxidothiomorpholino)phenyl)-1H-pyrazol-3-yl)cyclohexanecarboxamide] | – | 14.3 nM
19 | N#CC1(NC(=O)[C@@H]2C[C@@H](F)CC[C@H]2c2nn(-c3ncccc3F)cc2-c2ccc(N3CCS(=N)(=O)CC3)cc2)CC1 [Example 56, (1R,2R,5S)-N-(1-cyanocyclopropyl)-5-fluoro-2-(1-(3-fluoropyridin-2-yl)-4-(4-(1-imino-1-oxidothiomorpholino)phenyl)-1H-pyrazol-3-yl)cyclohexanecarboxamide] | – | 5.69 nM
20 | N#CC1(NC(=O)[C@@H]2CCC(F)(F)C[C@H]2c2nn(-c3ccc(Cl)cn3)cc2-c2ccc(N3CCS(=O)(=O)CC3)cc2)CC1 [Example 150, (1R,2R)-2-(1-(5-chloropyridin-2-yl)-4-(4-(1,1-dioxidothiomorpholino)phen-yl)-1H-pyrazol-3-yl)-N-(1-cyanocyclopropyl)-4,4-difluorocyclohexanecarbox-amide] | – | 1.43 nM
21 | N#CC1(NC(=O)[C@@H]2CCCC[C@H]2c2nn(-c3ncccn3)cc2-c2ccc(N3CCS(=O)(=O)CC3)cc2)CC1 [Example 160, (1R,2R)-N-(1-cyanocyclopropyl)-2-(4-(4-(1,1-dioxidothiomorpholino)phen-yl)-1-(pyrimidin-2-yl)-1H-pyrazol-3-yl)cyclohexanecarboxamide] | – | 34.7 nM

Reference: patent publication US9656990B2, “Cathepsin cysteine protease inhibitors” (Merck Sharp & Dohme Corp., priority 2014, dated 2017)
